Molecular target: influenza A virus minigenome (PB2, PB1, PA, NP proteins) (UniProt P04665)
Assay type: cell-based
Conditions: read-out: RNP_ Hubei B IC50

Chain of influenza A virus minigenome (PB2, PB1, PA, NP proteins) (P04665 whole entry): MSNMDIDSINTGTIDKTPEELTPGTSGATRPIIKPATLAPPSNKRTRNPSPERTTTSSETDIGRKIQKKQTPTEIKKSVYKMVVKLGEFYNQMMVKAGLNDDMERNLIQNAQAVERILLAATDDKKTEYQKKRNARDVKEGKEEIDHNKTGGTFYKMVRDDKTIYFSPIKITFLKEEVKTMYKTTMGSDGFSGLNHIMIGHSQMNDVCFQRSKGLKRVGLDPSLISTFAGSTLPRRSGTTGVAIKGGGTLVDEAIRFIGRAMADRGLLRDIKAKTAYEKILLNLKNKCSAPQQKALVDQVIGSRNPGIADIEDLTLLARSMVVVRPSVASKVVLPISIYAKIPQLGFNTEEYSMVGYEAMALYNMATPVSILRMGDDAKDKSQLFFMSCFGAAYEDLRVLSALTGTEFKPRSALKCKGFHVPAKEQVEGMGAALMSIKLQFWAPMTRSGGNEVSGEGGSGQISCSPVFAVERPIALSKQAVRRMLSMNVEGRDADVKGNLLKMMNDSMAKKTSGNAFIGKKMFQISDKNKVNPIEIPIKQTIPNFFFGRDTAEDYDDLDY

Row | Compound | IC50
1 | NC(=O)c1cc(-c2ccc(OCC3CCCO3)cc2)c(C(F)(F)F)[nH]c1=O (centres unmarked) [Example 232, 2-oxo-5-(4-((tetrahydrofuran-2-yl)methoxy)phenyl)-6-(trifluoromethyl)-1,2-dihydropyridine-3-carboxamide] | 10 to 25 µM
2 | CC(C)(C)OC(=O)N1C[C@@H](F)C[C@H]1COc1ccc(-c2cc(C(N)=O)c(=O)[nH]c2C(F)(F)F)cc1 [Example 306, tert-butyl (2S,4S)-2-((4-(5-carbamoyl-6-oxo-2-(trifluoromethyl)-1,6-dihydropyridin-3-yl)phenoxy)methyl)-4-fluoropyrrolidine-1-carboxylate] | 5 to 10 µM
3 | COCCn1nccc1COc1ccc(-c2cc(C(N)=O)c(=O)[nH]c2C(F)(F)F)cc1 [Example 219, 5-(4-((1-(2-methoxyethyl)-1H-pyrazol-5-yl)methoxy)phenyl)-2-oxo-6-(trifluoromethyl)-1,2-dihydropyridine-3-carboxamide] | 25 to 50 µM
4 | CC(C)(O)C1COCC(COc2ccc(-c3cc(C(N)=O)c(=O)[nH]c3C(F)(F)F)cc2)O1 (single isomer, unassigned) [Example 355, 5-(4-((6-(2-hydroxypropan-2-yl)-1,4-dioxan-2-yl)methoxy)phenyl)-2-oxo-6-(trifluoromethyl)-1,2-dihydropyridine-3-carboxamide] | 5 to 10 µM
5 | Cn1cc(COc2ccc(-c3cc(C(N)=O)c(=O)[nH]c3C(F)(F)F)cc2)cn1 [Example 220, 5-(4-((1-methyl-1H-pyrazol-4-yl)methoxy)phenyl)-2-oxo-6-(trifluoromethyl)-1,2-dihydropyridine-3-carboxamide] | 25 to 50 µM
6 | COCC1OC(COc2ccc(-c3cc(C(N)=O)c(=O)[nH]c3C(F)(F)F)cc2)COC1C (single isomer, unassigned) [Example 393, 5-(4-((6-(methoxymethyl)-5-methyl-1,4-dioxan-2-yl)methoxy)phenyl)-2-oxo-6-(trifluoromethyl)-1,2-dihydropyridine-3-carboxamide] | 5 to 10 µM
7 | COC[C@@]1(C)COC[C@@H](COc2ccc(-c3cc(C(N)=O)c(=O)[nH]c3C(F)(F)F)cc2)O1 [Example 405, 5-(4-(((2S,6S)-6-(methoxymethyl)-6-methyl-1,4-dioxan-2-yl)methoxy)phenyl)-2-oxo-6-(trifluoromethyl)-1,2-dihydropyridine-3-carboxamide] | 5 to 10 µM
8 | COCCOc1ccc(-c2cc(C(N)=O)c(=O)[nH]c2C(F)(F)F)cc1 [Example 254, 5-(4-(2-methoxyethoxy)phenyl)-2-oxo-6-(trifluoromethyl)-1,2-dihydropyridine-3-carboxamide] | 25 to 50 µM
9 | COCC1(COC)COC[C@@H](COc2ccc(-c3cc(C(N)=O)c(=O)[nH]c3C(F)(F)F)cc2)O1 [Example 414, (S)-5-(4-((6,6-bis(methoxymethyl)-1,4-dioxan-2-yl)methoxy)phenyl)-2-oxo-6-(trifluoromethyl)-1,2-dihydropyridine-3-carboxamide] | 5 to 10 µM
10 | CC1(C)CC[C@@H](COc2ccc(-c3cc(C(N)=O)c(=O)[nH]c3C(F)(F)F)cc2)O1 [Example 300, (S)-5-(4-((5,5-dimethyltetrahydrofuran-2-yl)methoxy)phenyl)-2-oxo-6-(trifluoromethyl)-1,2-dihydropyridine-3-carboxamide] | 10 to 25 µM
11 | Cc1oncc1COc1ccc(-c2cc(C(N)=O)c(=O)[nH]c2C(F)(F)F)cc1 [Example 269, 5-(4-((5-methylisoxazol-4-yl)methoxy)phenyl)-2-oxo-6-(trifluoromethyl)-1,2-dihydropyridine-3-carboxamide] | 25 to 50 µM
12 | CN1CCOCC1COc1ccc(-c2cc(C(N)=O)c(=O)[nH]c2C(F)(F)F)cc1 (centres unmarked) [Example 247, 5-(4-((4-methylmorpholin-3-yl)methoxy)phenyl)-2-oxo-6-(trifluoromethyl)-1,2-dihydropyridine-3-carboxamide] | 25 to 50 µM
13 | CC1(OCC2COCC(COc3ccc(-c4cc(C(N)=O)c(=O)[nH]c4C(F)(F)F)cc3)O2)COC1 (single isomer, unassigned) [Example 379] | 5 to 10 µM
14 | C[C@@H]1COC[C@@H](COc2ccc(-c3cc(C(N)=O)c(=O)[nH]c3C(F)(F)F)cc2)O1 [Example 329, 5-(4-(((2S,6R)-6-methyl-1,4-dioxan-2-yl)methoxy)phenyl)-2-oxo-6-(trifluoromethyl)-1,2-dihydropyridine-3-carboxamide] | 25 to 50 µM
15 | NC(=O)c1cc(-c2ccc(OCC3COCC(COCC4(F)CC4)O3)cc2)c(C(F)(F)F)[nH]c1=O (single isomer, unassigned) [Example 364, 5-(4-((6-(((1-fluorocyclopropyl)methoxy)methyl)-1,4-dioxan-2-yl)methoxy)phenyl)-2-oxo-6-(trifluoromethyl)-1,2-dihydropyridine-3-carboxamide] | 5 to 10 µM
16 | NC(=O)c1cc(-c2ccc(OCC3C[C@@H]4CC[C@H]3O4)cc2)c(C(F)(F)F)[nH]c1=O (single isomer, unassigned) [Example 313, 5-(4-((7-oxabicyclo[2.2.1]heptan-2-yl)methoxy)phenyl)-2-oxo-6-(trifluoromethyl)-1,2-dihydropyridine-3-carboxamide] | 10 to 25 µM
17 | NC(=O)c1cc(-c2ccc(OCC3COCC(COCC4CC4)O3)cc2)c(C(F)(F)F)[nH]c1=O (single isomer, unassigned) [Example 362, 5-(4-((6-((cyclopropylmethoxy)methyl)-1,4-dioxan-2-yl)methoxy)phenyl)-2-oxo-6-(trifluoromethyl)-1,2-dihydropyridine-3-carboxamide] | 5 to 10 µM
18 | NC(=O)c1cc(-c2ccc(OCC3COCC(COCC4CC4)O3)cc2)c(C(F)(F)F)[nH]c1=O (single isomer, unassigned) [Example 363, 5-(4-((6-((cyclopropylmethoxy)methyl)-1,4-dioxan-2-yl)methoxy)phenyl)-2-oxo-6-(trifluoromethyl)-1,2-dihydropyridine-3-carboxamide] | 5 to 10 µM
19 | COC1(C2COCC(COc3ccc(-c4cc(C(N)=O)c(=O)[nH]c4C(F)(F)F)cc3)O2)CC1 (single isomer, unassigned) [Example 353, 5-(4-((6-(1-methoxycyclopropyl)-1,4-dioxan-2-yl)methoxy)phenyl)-2-oxo-6-(trifluoromethyl)-1,2-dihydropyridine-3-carboxamide] | 5 to 10 µM
20 | CC1COC(COc2ccc(-c3cc(C(N)=O)c(=O)[nH]c3C(F)(F)F)cc2)CO1 (single isomer, unassigned) [Example 323, 5-(4-((5-methyl-1,4-dioxan-2-yl)methoxy)phenyl)-2-oxo-6-(trifluoromethyl)-1,2-dihydropyridine-3-carboxamide] | 10 to 25 µM
21 | CN1C(=O)OCC1COc1ccc(-c2cc(C(N)=O)c(=O)[nH]c2C(F)(F)F)cc1 (centres unmarked) [Example 235, 5-(4-((3-methyl-2-oxooxazolidin-4-yl)methoxy)phenyl)-2-oxo-6-(trifluoromethyl)-1,2-dihydropyridine-3-carboxamide] | 25 to 50 µM
22 | CC(C)n1ncc2c1COCC2COc1ccc(-c2cc(C(N)=O)c(=O)[nH]c2C(F)(F)F)cc1 (single isomer, unassigned) [Example 293, 5-(4-((1-isopropyl-1,4,5,7-tetrahydropyrano[3,4-c]pyrazol-4-yl)methoxy)phenyl)-2-oxo-6-(trifluoromethyl)-1,2-dihydropyridine-3-carboxamide] | 5 to 10 µM
23 | COCC1OC(COc2ccc(-c3cc(C(N)=O)c(=O)[nH]c3C(F)(F)F)cc2)COC1C (single isomer, unassigned) [Example 392, 5-(4-((6-(methoxymethyl)-5-methyl-1,4-dioxan-2-yl)methoxy)phenyl)-2-oxo-6-(trifluoromethyl)-1,2-dihydropyridine-3-carboxamide] | 5 to 10 µM

Same assay, conditions: read-out: RNP_Hubei B

Row | Compound | IC50
24 | C[C@H]1COCC(COc2ccc(-c3cc(C(N)=O)c(=O)[nH]c3C(F)(F)F)cc2)N1C (stereo partly drawn) [Example 208, 5-(4-(((5S)-4,5-dimethylmorpholin-3-yl)methoxy)phenyl)-2-oxo-6-(trifluoromethyl)-1,2-dihydropyridine-3-carboxamide] | 5 to 10 µM
25 | Cc1noc(C)c1COc1ccc(-c2cc(C(N)=O)c(=O)[nH]c2C(F)(F)F)cc1 [Example 107, 5-(4-((3,5-dimethylisoxazol-4-yl)methoxy)phenyl)-2-oxo-6-(trifluoromethyl)-1,2-dihydropyridine-3-carboxamide] | 25 to 50 µM
26 | N#Cc1cccc(COc2ccc(-c3cc(C(N)=O)c(=O)[nH]c3C(F)(F)F)cc2)c1 [Example 78, 5-(4-((3-cyanobenzyl)oxy)phenyl)-2-oxo-6-(trifluoromethyl)-1,2-dihydropyridine-3-carboxamide] | 25 to 50 µM
27 | CC(Oc1ccc(-c2cc(C(N)=O)c(=O)[nH]c2C(F)(F)F)cc1)c1cccc(C#N)c1 (single isomer, unassigned) [Example 97, (R or S)-5-(4-(1-(3-cyanophenyl)ethoxy)phenyl)-2-oxo-6-(trifluoromethyl)-1,2-dihydropyridine-3-carboxamide] | 25 to 50 µM
28 | NC(=O)c1cc(-c2ccc(CN3CCOCC3)cc2)c(C(F)(F)F)[nH]c1=O [Example 1, 5-(4-(morpholinomethyl)phenyl)-2-oxo-6-(trifluoromethyl)-1,2-dihydropyridine-3-carboxamide] | 25 to 50 µM
29 | NC(=O)c1cc(-c2ccc(OCc3cccc(N)c3)cc2)c(C(F)(F)F)[nH]c1=O [Example 57, 5-(4-((3-aminobenzyl)oxy)phenyl)-2-oxo-6-(trifluoromethyl)-1,2-dihydropyridine-3-carboxamide] | 5 to 10 µM
30 | NC(=O)c1cc(-c2ccc(OCc3ccc4cn[nH]c4c3)cc2)c(C(F)(F)F)[nH]c1=O [Example 85, 5-(4-((1H-indazol-6-yl)methoxy)phenyl)-2-oxo-6-(trifluoromethyl)-1,2-dihydropyridine-3-carboxamide] | 25 to 50 µM
31 | NC(=O)c1cc(-c2ccc(OCc3cnc4c(c3)ncn4CC3CC3)cc2)c(C(F)(F)F)[nH]c1=O [Example 175, 5-(4-((3-(cyclopropylmethyl)-3H-imidazo[4,5-b]pyridin-6-yl)methoxy)phenyl)-2-oxo-6-(trifluoromethyl)-1,2-dihydropyridine-3-carboxamide] | 25 to 50 µM
32 | CC1COCCN1Cc1ccc(-c2cc(C(N)=O)c(=O)[nH]c2C(F)(F)F)cc1 (centres unmarked) [Example 27, 5-(4-((3-methylmorpholino)methyl)phenyl)-2-oxo-6-(trifluoromethyl)-1,2-dihydropyridine-3-carboxamide] | 10 to 25 µM
